# US5494932A, “Sulfonic stilbene derivatives in the treatment of viral disease” (Merrell Dow Pharmaceuticals Inc., priority 1991, dated 1996)
# Like-named read-outs stand apart in the source and are kept apart here.
# How the values were obtained:
# [1] = tested on: HSV 2; assay: Plaque reduction assay, HSV 2; format: cell-based
# Procedure: (§1) Protocol: Plaque reduction assay. Treatment after adsorption during incubation.
# [2] = tested on: HCMV; assay: Plaque reduction assay, HCMV; format: cell-based
# Procedure: as §1
# [3] = tested on: HIV-1 infected JM cells; assay: Treatment of HIV-1 infected JM cells with DIDS, SITS and ddC; format: cell-based, HIV-1 (human T cell line JM); conditions: 5 μM
# Procedure: Protocol: JM cells were infected with HIV to give approximately 100 syncytia after 3 days. Virus adsorption was at room temperature for 2 hours. The cells were then washed thoroughly and distributed in wells of a tissue culture plate at a concentration of 1×10^5 cells/well. At 24 hours post infection either DIDS (100 μg/ml), SITS (100 μg/ml), or ddC (5 μM) were added to wells having infected cells. As virus controls, some wells had no drug added. At 42 hours post infection other wells received either ddC (5 μM), SITS (100 μg/ml), or DIDS (100, 50, 25, 12.5, 6.25 μg/ml). Syncytia were scored at 3 and 4 days post-infection and the supernatant fluids were harvested after 3 and 4 days for p24 core antigen determination.
# [4] = tested on: HIV-1; conditions: cited from earlier work
# [5] = tested on: virus-induced cell fusion (gp120-CD4 dependent); assay: Anti-syncytial cocultivation assay: H9 cells chronically infected with HIV-1 RF mixed with uninfected C8166 cells; format: cell-based, HIV-1 RF; human H9 and C8166 cells; conditions: for blocking virus-induced cell fusion and death: summary statement
# From the text: Syncytial cell formation depends on the interaction of gp120, expressed in the membranes of infected cells, with the CD4 antigen on neighboring cells (Camerini and Seed, 1990). We utilized a cell cocultivation model to examine the effect of the stilbene disulfonic acids on the gp120-CD4 dependent fusion process. This system consists of mixing H9 cells chronically infected with HIV-1 RF (gp120^+ cells) with uninfected C8166 cells (CD4^+ cells) as the fusion indicator. In this assay, cell fusion occurred within 2 to 3 hours of mixing at 37° C. and substantial syncytia were observed after a further 3 to 4 hours (FIG. 1, Panel A). […] These findings with the sulfated polysaccharides were consistent with a previous report (Montefiori et al., 1990).
# The effect of the stilbene disulfonic acids and various sulfated polysaccharides on virus-induced cell fusion. In this assay, 10^5 H9 cells, chronically infected with the HIV-1 strain RF, were cocultured with 10^5 uninfected C8166 cells in the absence and presence of the test compounds. FIG. 1A: Positive control, no compound addition; FIG. 1B: 100 μg/ml DIDS; FIG. 1C: 100 μg/ml SITS; FIG. 1D: positive control; FIG. 1E: 10 μg/ml 500,000 MW dextran sulfate; FIG. 1F: 250 μg/ml heparin.
# CD4^+ uninfected C8166 cells were seeded into 24-well trays ([…]) that contained growth medium and various concentrations of test compounds. H9 cells, chronically infected with the RF strain of HIV-1, were washed and then added as a source of gp120^+ cells at 10^5 cells/well except for the noncytopathic control: those wells received uninfected H9 cells. The trays were then incubated at 37° C. and the cocultures were observed between 1 and 6 hours p.i. Syncytia were recorded on photographic film.
# Protocol: H9 cells chronically infected with RF strain of HIV-1 and uninfected C8166 cells were mixed in the presence of either DIDS, SITS, H2 DIDS, dextran sulfate, or heparin (100 μg/ml). The cells were observed after 2, 31/2 and 51/2 hours and the amount of cell fusion quantified.
# Protocol: H9 cells chronically inected with HIV-1 and uninfected C8166 cells were mixed in the presence of either DIDS, SITS, H2 DIDS, dextran sulfate, heparin (at 100 μg/ml), OKT4 or OKT4A (at a 1/50 dilution). The cells were observed after 4 hours and the amount of cell fusion quantitied. OKT4 and OKT4A are monoclonal antibodies that bined the CD4 cell surface antigen.
# [6] = tested on: virus-induced cell fusion (gp120-CD4 dependent); assay: Cell fusion after pretreatment of uninfected C8166 cells, washing and mixing with chronically infected H9 cells; format: cell-based, HIV-1; human H9 and C8166 cells; conditions: cells pretreated and washed before mixing with H9 cells
# Procedure: In the next experiments, CD4+ C8166 cells were pretreated overnight with either DIDS (100 μg/ml), SITS (100 μg/ml) or drug-free medium. Unabsorbed compounds were removed by repeated washings and chronically infected H9 cells were then added. […] Thus, cell washing prior to mixing with the H9 cells oblated the protective effect observed above (FIG. 1, Panel E) when 500,000 MW dextran sulfate was continually present in the assay.
# Pretreatment of CD4+ C8166 cells with DIDS blocks fusion with chronically infected H9 cells. In this experiment, C8166 cells were pretreated overight with various stilbene disulfonic acids or drug-free medium (fusion control). The cells were washed, incubated with chronically infected H9 cells and syncytia were photographed at 6 hours post-mixing. Pretreatment conditions were as follows: […]: 100 μg/ml SITS; FIG. 2B: drug-free medium; and FIG. 2C: 100 μg/ml DIDS.
# In pretreatment experiments, CD4^+ C8166 cells were maintained in serum-free medium (RPMI 1640 plus human transferrin 50 μg/ml, bovine insulin 20 μg/ml, bovine serum albumin 2 mg/ml) and were exposed to compound by overnight incubation. Treated cells were washed twice in fresh serum-free medium and then cocultured with chronically infected H9 cells in serum-free medium. Otherwise, cell numbers, assay conditions and scoring of syncytia were as described above.
# Protocol: C8166 cells were pretreated for 2.5 hours with either DIDS, SITS or H2 DIDS (at 500 and 250 μg/ml). The cells were then washed three times and mixed with H9 cells chronically infected with HIV-1. Cell fusion was quantified after 4 and 24 hours.
compound,measurement,setting,value
"Nc1nc2c(ncn2COCCO)c(=O)[nH]1 [Acyclovir, reference compound]",Plaque counts,"[1]; 0.1 μg/ml, first count",44
same,activity at 0.1 µg/mL,"[1]; 0.1 μg/ml, read-out: Mean % VC (plaques)",70%
same,Plaque counts,"[1]; 0.1 μg/ml, second count",34
same,Plaque counts,"[1]; 1 μg/ml, first count",31
same,activity at 1 µg/mL,"[1]; 1 μg/ml, read-out: Mean % VC (plaques)",54%
same,Plaque counts,"[1]; 1 μg/ml, second count",31
same,Plaque counts,"[1]; 1 μg/ml, third count",29
same,Plaque counts,"[1]; 10 μg/ml, first count",0
same,activity at 10 µg/mL,"[1]; 10 μg/ml, read-out: Mean % VC (plaques)",0%
same,Plaque counts,"[1]; 10 μg/ml, second count",1
same,Plaque counts,"[1]; 10 μg/ml, third count",0
same,Plaque counts,"[1]; 100 μg/ml, first count",0
same,activity at 100 µg/mL,"[1]; 100 μg/ml, read-out: Mean % VC (plaques)",0%
same,Plaque counts,"[1]; 100 μg/ml, second count",0
same,Plaque counts,"[1]; 100 μg/ml, third count",0
"Nc1nc(O)c2ncn(COC(CO)CO)c2n1 [Gancyclovir, reference compound]",Plaque counts,"[2]; 0.1 μg/ml, first count",34
same,Plaque counts,"[2]; 0.1 μg/ml, second count",39
same,Plaque counts,"[2]; 1 μg/ml, first count",6
same,Plaque counts,"[2]; 1 μg/ml, second count",13
same,Plaque counts,"[2]; 1 μg/ml, third count",1
same,Plaque counts,"[2]; 10 μg/ml, first count",3
same,Plaque counts,"[2]; 10 μg/ml, second count",2
same,Plaque counts,"[2]; 10 μg/ml, third count",7
same,Plaque counts,"[2]; 1000 μg/ml, first count",0
same,Plaque counts,"[2]; 1000 μg/ml, second count",0
same,Plaque counts,"[2]; 1000 μg/ml, third count",0
same,activity at 0.1 µg/mL,"[2]; Human betaherpesvirus 5, 0.1 μg/ml, read-out: Mean % VC (plaques)",> 100%
same,activity at 1 µg/mL,"[2]; Human betaherpesvirus 5, 1 μg/ml, read-out: Mean % VC (plaques)",22%
same,activity at 10 µg/mL,"[2]; Human betaherpesvirus 5, 10 μg/ml, read-out: Mean % VC (plaques)",10%
same,activity at 1000 µg/mL,"[2]; Human betaherpesvirus 5, 1000 μg/ml, read-out: Mean % VC (plaques)",0%
"Nc1ccn([C@H]2CC[C@@H](CO)O2)c(=O)n1 [ddC, reference compound]",Mean syncytia/well 3 days p.i.,[3]; added 24 hr,65
same,Mean syncytia/well 4 days p.i.,[3]; added 24 hr,51
same,p24 antigen 3 days p.i.,[3]; added 24 hr,9000 pg/mL
same,p24 antigen 4 days p.i.,[3]; added 24 hr,3100 pg/mL
same,Mean syncytia/well 3 days p.i.,[3]; added 42 hr,As VC
same,Mean syncytia/well 4 days p.i.,[3]; added 42 hr,As VC
same,p24 antigen 3 days p.i.,[3]; added 42 hr,17000 pg/mL
same,p24 antigen 4 days p.i.,[3]; added 42 hr,67000 pg/mL
same,activity at 5 µM,"[3]; Human immunodeficiency virus 1, 72 h, added 24 hr, read-out: p24 antigen 3 days p.i., % control",19%
same,activity at 5 µM,"[3]; Human immunodeficiency virus 1, 72 h, added 42 hr, read-out: p24 antigen 3 days p.i., % control",36%
same,activity at 5 µM,"[3]; Human immunodeficiency virus 1, 96 h, added 24 hr, read-out: p24 antigen 4 days p.i., % control",3.5%
same,activity at 5 µM,"[3]; Human immunodeficiency virus 1, 96 h, added 42 hr, read-out: p24 antigen 4 days p.i., % control",75%
Dextran Sulfate [reference compound],inhibition of HIV-1 replication in vitro,[4],highly effective inhibitors
same,Syncytia after 3 1/2 hrs,"[5]; 100 μg/ml, virus control +++",0
same,Syncytia after 5 1/2 hrs,"[5]; 100 μg/ml, virus control +++",0
"Dextran sulfate (8,000) [reference compound]",cell fusion / syncytia,"[5]; 100 μg/ml, at the time of cell mixing",totally ineffective
same,blocking virus-induced cell fusion and death,[5],ineffective at blocking virus-induced cell fusion and death
Heparin [reference compound],inhibition of HIV-1 replication in vitro,[4],highly effective inhibitors
same,cell fusion relative to nontreated virus control,"[5]; 250 μg/ml, Panel F",totally ineffective
same,blocking virus-induced cell fusion and death,[5],ineffective at blocking virus-induced cell fusion and death
same,protective effect after pretreatment,[6],no protective effect
pentosan polysulfate,inhibition of HIV-1 replication in vitro,[4],highly effective inhibitors
